{
  "source": "ChEMBL document CHEMBL1649183",
  "about": "“Substrate-induced inactivation of the Escherichia coli AmiD N-acetylmuramoyl-L-alanine amidase highlights a new strategy to inhibit this class of enzyme” (Antimicrob Agents Chemother, 2009)",
  "key": {"Escherichia coli [1]": {"system": "Escherichia coli", "experiment": "Inactivation of histidine6-tagged Escherichia coli LMG194 AmiD at 14 uM"}, "Escherichia coli [2]": {"system": "Escherichia coli", "experiment": "Inactivation of histidine6-tagged Escherichia coli LMG194 AmiD at 27 uM"}},
  "note": "Activity calls are given as the source filed them. The calls are words filed in the database; no cut-off is given here.",
  "data": [
    {"smiles": "CC(=O)N[C@H]1[C@@H]2OC[C@@H](O2)[C@@H](O[C@@H]2O[C@H](CO)[C@@H](O)C(O)[C@H]2NC(C)=O)[C@@H]1O[C@@H](C)C(=O)N[C@@H](C)C(=O)N[C@H](CCC(=O)N[C@H](CCC[C@H](N)C(=O)O)C(=O)N[C@H](C)C(=O)O)C(=O)O", "note": "(single isomer, unassigned)", "values": [
      {"measurement": "inhibition", "setting": "Escherichia coli [1]", "value": "Active"},
      {"measurement": "inhibition", "setting": "Escherichia coli [2]", "value": "Active"}
    ]}
  ]
}
